Laboratory results published in publication PMC11074101 (Cell Discovery, 2024).

Assays:
Assay type in all cases: cell-based
[1] = biological target: T1, MCHR2 V181(ECL2)A (Homo sapiens, UniProt Q969V1, V181A); assay: IP-One IP1 accumulation assay, MCHR2 V181A; details: n = 3 in triplicate
T1 construct: expressed in transfected cells; host or cells: AD293
Description: (§1) The gene sequences encoding human MCHR1 (residues 70‒405) and MCHR2 (residues 1‒331, with L256^6.40Y mutation) were subcloned into pFastBac vector (Invitrogen) with an N-terminal haemagglutinin signal peptide (HA) and a thermostabilized BRIL fusion, followed by a C-terminal 15-amino acid linker, a LgBiT subunit and two MBPs to facilitate receptor expression and stability. The Gαi construct was designed with dominant-negative mutations S47N, G203A, A326S, and E245A to decrease the affinity of nucleotide-binding and stable Gαβγ complex. The mini-Gαq construct was designed with the C-terminal α-helix (αH5) of Gαq, which is critical for G protein coupling selectivity. The core of the construct, known as the Ras domain, is derived from Gαs. This design choice was made to enable the binding of the nanobody Nb35, which stabilizes the complex for cryo-EM analysis. […]
(§2) IP1 accumulation assay was applied for the detection of the downstream Gαq signal of MCHR2 using the IP-One HTRF kit (Cisbio). […] Before measurement, the samples were incubated at RT for 30 min and measured with EnVision multi-plate reader (PerkinElmer).
(§3) Concentration–response curves were evaluated with a three-parameter logistic equation. The significance was determined with one-way ANOVA with Tukey’s test, and P < 0.05 vs wild type was considered statistically significant.

[2] = biological target: T2, MCHR1 I254(ECL2)A (Homo sapiens, UniProt Q99705, I185A); assay: GloSensor cAMP assay, MCHR1 I254A; details: HEK293, mean ± S.E.M., n = 3 in triplicate
T2 construct: expressed in transfected cells; host or cells: HEK293
T2 sequence (Q99705 whole entry I185A): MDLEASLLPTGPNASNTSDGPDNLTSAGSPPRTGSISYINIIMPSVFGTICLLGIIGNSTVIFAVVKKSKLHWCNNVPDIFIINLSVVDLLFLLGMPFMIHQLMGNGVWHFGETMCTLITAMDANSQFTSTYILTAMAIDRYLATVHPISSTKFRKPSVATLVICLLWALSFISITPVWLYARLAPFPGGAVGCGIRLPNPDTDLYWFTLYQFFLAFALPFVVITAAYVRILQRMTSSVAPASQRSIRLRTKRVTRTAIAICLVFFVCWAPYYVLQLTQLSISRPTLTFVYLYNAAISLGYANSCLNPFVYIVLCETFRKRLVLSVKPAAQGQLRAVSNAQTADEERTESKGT
Description: (§4) The gene sequences encoding human MCHR1 (residues 70‒405) and MCHR2 (residues 1‒331, with L256^6.40Y mutation) were subcloned into pFastBac vector (Invitrogen) with an N-terminal haemagglutinin signal peptide (HA) and a thermostabilized BRIL fusion, followed by a C-terminal 15-amino acid linker, a LgBiT subunit and two MBPs to facilitate receptor expression and stability. The Gαi construct was designed with dominant-negative mutations S47N, G203A, A326S, and E245A to decrease the affinity of nucleotide-binding and stable Gαβγ complex. The mini-Gαq construct was designed with the C-terminal α-helix (αH5) of Gαq, which is critical for G protein coupling selectivity. The core of the construct, known as the Ras domain, is derived from Gαs. This design choice was made to enable the binding of the nanobody Nb35, which stabilizes the complex for cryo-EM analysis. […] Rat Gβ1 was constructed with a N-terminal 16× His-tag for purification and a C-terminal HiBiT to form a NanoBiT with LgBiT. […] The wild-type and mutants of MCHR1 and MCHR2 were constructed into the pcDNA6.0 vector […] for functional assays.
(§5) GloSensor cAMP assay was used to detect the downstream Gαi signal of MCHR1 using GloSensor cAMP Reagent (Promega).

[3] = biological target: T3, MCHR1 Q196(3.36)A (Homo sapiens, UniProt Q99705, Q127A); assay: GloSensor cAMP assay, MCHR1 Q196A; details: HEK293, mean ± S.E.M., n = 3 in triplicate
T3 construct: expressed in transfected cells; host or cells: HEK293
T3 sequence (Q99705 whole entry Q127A): as the sequence (Q99705 whole entry I185A) above, with Q127A, A185I counted along it
Description: as §4, §5

[4] = biological target: T4, MCHR1 D192(3.32)A (Homo sapiens, UniProt Q99705, D123A); assay: GloSensor cAMP assay, MCHR1 D192A; details: HEK293, mean ± S.E.M., n = 3 in triplicate
T4 construct: expressed in transfected cells; host or cells: HEK293
T4 sequence (Q99705 whole entry D123A): as the sequence (Q99705 whole entry I185A) above, with D123A, A185I counted along it
Description: as §4, §5

[5] = biological target: T5, MCHR2 Q117(3.36)A (Homo sapiens, UniProt Q969V1, Q117A); assay: IP-One IP1 accumulation assay, MCHR2 Q117A; details: n = 3 in triplicate
T5 construct: expressed in transfected cells; host or cells: AD293
T5 sequence (Q969V1 whole entry Q117A): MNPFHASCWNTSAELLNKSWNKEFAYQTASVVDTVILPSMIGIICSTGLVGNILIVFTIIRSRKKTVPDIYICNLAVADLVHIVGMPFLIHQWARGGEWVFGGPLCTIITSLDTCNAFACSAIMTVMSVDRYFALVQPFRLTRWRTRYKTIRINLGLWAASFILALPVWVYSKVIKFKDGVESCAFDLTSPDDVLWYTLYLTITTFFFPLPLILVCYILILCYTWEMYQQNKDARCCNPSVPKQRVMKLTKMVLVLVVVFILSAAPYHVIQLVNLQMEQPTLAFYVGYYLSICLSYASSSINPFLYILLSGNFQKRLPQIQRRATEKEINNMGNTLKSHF
Description: as §1, §2, §3

[6] = biological target: T6, MCHR1 L172(2.64)A (Homo sapiens, UniProt Q99705, L103A); assay: GloSensor cAMP assay, MCHR1 L172A; details: HEK293, mean ± S.E.M., n = 3 in triplicate
T6 construct: expressed in transfected cells; host or cells: HEK293
T6 sequence (Q99705 whole entry L103A): as the sequence (Q99705 whole entry I185A) above, with L103A, A185I counted along it
Description: as §4, §5

[7] = biological target: T7, MCHR1 WT (Homo sapiens, UniProt Q99705); assay: GloSensor cAMP assay, MCHR1 WT (Gαi); details: HEK293, GloSensor cAMP, normalized by WT receptor, mean ± S.E.M., n = 3 in triplicate
T7 construct: expressed in transfected cells; host or cells: HEK293
T7 sequence (Q99705 whole entry): as the sequence (Q99705 whole entry I185A) above, with A185I counted along it
Description: as §4, §5

[8] = biological target: T8, MCHR2 V194(5.35)A (Homo sapiens, UniProt Q969V1, V194A); assay: IP-One IP1 accumulation assay, MCHR2 V194A; details: n = 3 in triplicate
T8 construct: expressed in transfected cells; host or cells: AD293
T8 sequence (Q969V1 whole entry V194A): as the sequence (Q969V1 whole entry Q117A) above, with A117Q, V194A counted along it
Description: as §1, §2, §3

[9] = biological target: T9, MCHR2 Q92(2.63)A (Homo sapiens, UniProt Q969V1, Q92A); assay: IP-One IP1 accumulation assay, MCHR2 Q92A; details: n = 3 in triplicate
T9 construct: expressed in transfected cells; host or cells: AD293
T9 sequence (Q969V1 whole entry Q92A): as the sequence (Q969V1 whole entry Q117A) above, with Q92A, A117Q counted along it
Description: as §1, §2, §3

[10] = biological target: T10, MCHR2 D179(ECL2)A (Homo sapiens, UniProt Q969V1, D179A); assay: IP-One IP1 accumulation assay, MCHR2 D179A; details: n = 3 in triplicate
T10 construct: expressed in transfected cells; host or cells: AD293
T10 sequence (Q969V1 whole entry D179A): as the sequence (Q969V1 whole entry Q117A) above, with A117Q, D179A counted along it
Description: as §1, §2, §3

[11] = biological target: T11, MCHR2 F186(45.52)A (Homo sapiens, UniProt Q969V1, F186A); assay: IP-One IP1 accumulation assay, MCHR2 F186A; details: AD293, mean ± S.E.M., n = 3 in triplicate
T11 construct: expressed in transfected cells; host or cells: AD293
T11 sequence (Q969V1 whole entry F186A): as the sequence (Q969V1 whole entry Q117A) above, with A117Q, F186A counted along it
Description: as §1, §2, §3

[12] = biological target: T12, MCHR2 T198(5.39)A (Homo sapiens, UniProt Q969V1, T198A); assay: IP-One IP1 accumulation assay, MCHR2 T198A; details: n = 3 in triplicate
T12 construct: expressed in transfected cells; host or cells: AD293
T12 sequence (Q969V1 whole entry T198A): as the sequence (Q969V1 whole entry Q117A) above, with A117Q, T198A counted along it
Description: as §1, §2, §3

[13] = biological target: T13, MCHR2 I292(7.39)A (Homo sapiens, UniProt Q969V1, I292A); assay: IP-One IP1 accumulation assay, MCHR2 I292A; details: n = 3 in triplicate
T13 construct: expressed in transfected cells; host or cells: AD293
T13 sequence (Q969V1 whole entry I292A): as the sequence (Q969V1 whole entry Q117A) above, with A117Q, I292A counted along it
Description: as §1, §2, §3

[14] = biological target: T14, MCHR2 G96(ECL1)A (Homo sapiens, UniProt Q969V1, G96A); assay: IP-One IP1 accumulation assay, MCHR2 G96A; details: n = 3 in triplicate
T14 construct: expressed in transfected cells; host or cells: AD293
T14 sequence (Q969V1 whole entry G96A): as the sequence (Q969V1 whole entry Q117A) above, with G96A, A117Q counted along it
Description: as §1, §2, §3

[15] = biological target: T15, MCHR2 Y288(7.35)A (Homo sapiens, UniProt Q969V1, Y288A); assay: IP-One IP1 accumulation assay, MCHR2 Y288A; details: n = 3 in triplicate
T15 construct: expressed in transfected cells; host or cells: AD293
T15 sequence (Q969V1 whole entry Y288A): as the sequence (Q969V1 whole entry Q117A) above, with A117Q, Y288A counted along it
Description: as §1, §2, §3

[16] = biological target: T16, MCHR2 W93(2.64)A (Homo sapiens, UniProt Q969V1, W93A); assay: IP-One IP1 accumulation assay, MCHR2 W93A; details: n = 3 in triplicate
T16 construct: expressed in transfected cells; host or cells: AD293
T16 sequence (Q969V1 whole entry W93A): as the sequence (Q969V1 whole entry Q117A) above, with W93A, A117Q counted along it
Description: as §1, §2, §3

[17] = biological target: T17, MCHR1 Y370(7.42)A (Homo sapiens, UniProt Q99705, Y301A); assay: GloSensor cAMP assay, MCHR1 Y370A; details: HEK293, mean ± S.E.M., n = 3 in triplicate
T17 construct: expressed in transfected cells; host or cells: HEK293
T17 sequence (Q99705 whole entry Y301A): as the sequence (Q99705 whole entry I185A) above, with A185I, Y301A counted along it
Description: as §1
GloSensor cAMP assay was used to detect the downstream Gαi signal of MCHR1 using GloSensor cAMP Reagent (Promega). […] The sample mixtures were immediately measured with an EnVision multi-plate reader (PerkinElmer).
as §3

[18] = biological target: T18, MCHR1 Q171(2.63)A (Homo sapiens, UniProt Q99705, Q102A); assay: GloSensor cAMP assay, MCHR1 Q171A; details: HEK293, mean ± S.E.M., n = 3 in triplicate
T18 construct: expressed in transfected cells; host or cells: HEK293
T18 sequence (Q99705 whole entry Q102A): as the sequence (Q99705 whole entry I185A) above, with Q102A, A185I counted along it
Description: as §4, §5

[19] = AD293, IP-One HTRF, 37 °C 1 h, mean ± S.E.M., P < 0.0001 vs WT

T1 sequence (Q969V1 whole entry V181A): as the sequence (Q969V1 whole entry Q117A) above, with A117Q, V181A counted along it

CSCC[C@@H]1NC(=O)[C@@H](NC(=O)[C@H](CCCNC(=N)N)NC(=O)[C@H](CC(C)C)NC(=O)[C@H](CCSC)NC(=O)[C@H](CC(=O)O)NC(=O)[C@H](Cc2ccccc2)NC(=O)[C@@H](N)CC(=O)O)CSSC[C@@H](C(=O)N[C@@H](Cc2c[nH]c3ccccc23)C(=O)N[C@@H](CCC(N)=O)C(=O)N[C@H](C(=O)O)C(C)C)NC(=O)[C@@H]2CCCN2C(=O)[C@H](CCCNC(=N)N)NC(=O)[C@H](Cc2ccc(O)cc2)NC(=O)[C@H](C(C)C)NC(=O)[C@H](CCCNC(=N)N)NC(=O)CNC(=O)[C@H](CC(C)C)NC1=O [MCH, Melanin-concentrating hormone]
EC50 [1, 19]: 53.7 nM
Emax ([1]; AD293, mean ± S.E.M.): 96 ± 1%
Emax [2]: 98 ± 3%
Emax [3]: 97 ± 1%
Emax [4]: 40 ± 7%
EC50 ([5]; AD293, IP-One HTRF, 37 °C 1 h, mean ± S.E.M., P 0.0352 vs WT): 10.7 nM
Emax ([5]; AD293, mean ± S.E.M.): 96 ± 2%
Emax [6]: 107 ± 3%
Emax [7]: 100%
EC50 [8, 19]: 33.1 nM
Emax ([8]; AD293, mean ± S.E.M.): 98 ± 1%
EC50 [9, 19]: 9120 nM
Emax ([9]; AD293, mean ± S.E.M.): 25 ± 2%
EC50 [10, 19]: 1290 nM
Emax ([10]; AD293, mean ± S.E.M.): 85%
Emax [11]: 98%
EC50 [12, 19]: 69.2 nM
Emax ([12]; AD293, mean ± S.E.M.): 93 ± 2%
EC50 [13, 19]: 129 nM
Emax ([13]; AD293, mean ± S.E.M.): 92 ± 2%
EC50 ([14]; AD293, IP-One HTRF, 37 °C 1 h, mean ± S.E.M., P 0.0012 vs WT): 15.5 nM
Emax ([14]; AD293, mean ± S.E.M.): 96%
EC50 [15, 19]: 1230 nM
Emax ([15]; AD293, mean ± S.E.M.): 84 ± 2%
EC50 [16, 19]: 6030 nM
Emax ([16]; AD293, mean ± S.E.M.): 91 ± 1%
Emax [17]: -21 ± 4%
Emax [18]: 57 ± 6%
